According to patent US20230100838A1 (Revolution Medicines, Inc., priority 2019, published 2023):

Columns and labels:
Type in all cases: binding
K-Ras G12S = K-Ras G12S (Homo sapiens, UniProt P01116, G12S); test: K-Ras G12S cross-linking assay (comparable procedure, conjugate formation, TOF mass spectrometry); parameters: key: 0: No observed x-linking
In short: (§1)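 5 μM protein (final, from 50 μM) in HEPES/NaCl/MgCl2 buffer pH 7.4 with compound typically at 2, 10 and 25 μM, room temperature, 1 and 24 h endpoints; formic acid quench. Intact-protein LC–TOF MS; percent modification is covalent adduct peak height over total K-Ras peak height.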

[1] = target: T1, GDP-loaded K-Ras (1-169) G12D, C51S, C80L, C118S (Homo sapiens, UniProt P01116, C118S/C51S/C80L/G12D); test: K-Ras G12D(GDP) cross-linking assay (conjugate formation, TOF mass spectrometry); parameters: key: 0: No observed x-linking; +: 0 < x ≤ 20; ++: 20 < x ≤ 40; +++: 40 < x ≤ 100; settings: percent covalently modified K-Ras by MS, room temperature, typical compound conc. 2, 10, 25 μM, endpoints 1 and 24 h
T1 construct: GDP-loaded K-Ras (1-169) G12D, C51S, C80L, C118S
In short: as §1

[2] = target: T2, GDP-loaded K-Ras (1-169) C51S, C80L, C118S (Homo sapiens, UniProt P01116, C118S/C51S/C80L); test: K-Ras WT (GDP) cross-linking assay (conjugate formation, TOF mass spectrometry); parameters: key: 0: No observed x-linking; +: 0 < x ≤ 20; ++: 20 < x ≤ 40; +++: 40 < x ≤ 100; settings: percent covalently modified K-Ras by MS, room temperature, typical compound conc. 2, 10, 25 μM, endpoints 1 and 24 h
T2 construct: GDP-loaded K-Ras (1-169) C51S, C80L, C118S
In short: as §1

[3] = Table 5, percent covalently modified K-Ras by MS
[4] = Table 4, percent covalently modified K-Ras by MS

**Q.** With `COCCN=C=N[C@H]1CC[C@@H](N(C)c2nc(OC[C@@H]3CCCN3C)nc3c2CCN(c2cccc4cccc(C)c24)C3)CC1` [Example 79, N-((1s,4R)-4-((((2-methoxyethyl)imino)methylene)amino)cyclohexyl)-N-methyl-7-(8-methylnaphthalen-1-yl)-2-(((S)-1-methylpyrrolidin-2-yl)methoxy)-5,6,7,8-tetrahydropyrido[3,4-d]pyrimidin-4-amine] as the molecule, how does the “G12S x-linking (%)” value (K-Ras G12S; [3]) read?
**A.** ++ (10 < x ≤ 100)

**Q.** What about the “G12D x-linking (%)” value ([1]; Table 5) of the same molecule?
**A.** +++ (40 < x ≤ 100)

**Q.** And the “WT x-linking (%)” value ([2]; Table 5)?
**A.** ++ (20 < x ≤ 100)

**Q.** `Cc1cccc2cccc(N3CCc4c(nc(OC[C@@H]5CCCN5C)nc4N4CCC(N=C=NCCCN(C)c5ccccc5)CC4)C3)c12` [Example 90, N-methyl-N-(3-((((1-(7-(8-methylnaphthalen-1-yl)-2-(((S)-1-methylpyrrolidin-2-yl)methoxy)-5,6,7,8-tetrahydropyrido[3,4-d]pyrimidin-4-yl)piperidin-4-yl)imino)methylene)amino)propyl)aniline] was tested. Which “G12S x-linking (%)” value (K-Ras G12S; [3]) did it give?
**A.** + (0 < x ≤ 10)

**Q.** And the “G12D x-linking (%)” value ([1]; Table 5)?
**A.** + (0 < x ≤ 20)

**Q.** And the “WT x-linking (%)” value ([2]; Table 5)?
**A.** + (0 < x ≤ 20)

**Q.** Which results are given for `Cc1cccc2cccc(N3CCc4c(nc(OC[C@@H]5CCCN5C)nc4N4CCC(N=C=Nc5ccccc5)CC4)C3)c12` [Example 48, N-(1-(7-(8-methylnaphthalen-1-yl)-2-(((S)-1-methylpyrrolidin-2-yl)methoxy)-5,6,7,8-tetrahydropyrido[3,4-d]pyrimidin-4-yl)piperidin-4-yl)-N-phenylmethanediimine]?
**A.** G12S x-linking (%) (K-Ras G12S; [4]): + (0 < x ≤ 10); G12D x-linking (%) ([1]; Table 4): + (0 < x ≤ 20); WT x-linking (%) ([2]; Table 4): + (0 < x ≤ 20)

**Q.** `Cc1cccc2cccc(N3CCc4c(nc(OC[C@@H]5CCCN5C)nc4N4CCC(N=C=NCCN(C)c5ccccc5)CC4)C3)c12` [Example 89, N-methyl-N-(2-((((1-(7-(8-methylnaphthalen-1-yl)-2-(((S)-1-methylpyrrolidin-2-yl)methoxy)-5,6,7,8-tetrahydropyrido[3,4-d]pyrimidin-4-yl)piperidin-4-yl)imino)methylene)amino)ethyl)aniline] was tested. Which “G12S x-linking (%)” value (K-Ras G12S; [3]) did it give?
**A.** + (0 < x ≤ 10)

**Q.** And the “G12D x-linking (%)” value ([1]; Table 5)?
**A.** + (0 < x ≤ 20)

**Q.** What about the “WT x-linking (%)” value ([2]; Table 5) of the same molecule?
**A.** + (0 < x ≤ 20)

**Q.** For `COCCN=C=N[C@@H]1CCN(c2nc(OC[C@@H]3CCCN3C)nc3c2CCN(c2cccc4cccc(C)c24)C3)C1` [Example 73, N-(2-methoxyethyl)-N—((R)-1-(7-(8-methylnaphthalen-1-yl)-2-(((S)-1-methylpyrrolidin-2-yl)methoxy)-5,6,7,8-tetrahydropyrido[3,4-d]pyrimidin-4-yl)pyrrolidin-3-yl)methanediimine], which “G12S x-linking (%)” value (K-Ras G12S; [3]) is on record?
**A.** ++ (10 < x ≤ 100)

**Q.** What about the “G12D x-linking (%)” value ([1]; Table 5) of the same molecule?
**A.** +++ (40 < x ≤ 100)

**Q.** And the “WT x-linking (%)” value ([2]; Table 5)?
**A.** ++ (20 < x ≤ 100)

**Q.** What does the source list for `Cc1cccc2cccc(N3CCc4c(nc(OC[C@@H]5CCCN5C)nc4N4CCN(C5=NCCO5)[C@@H](CC#N)C4)C3)c12` [Example 38, 2-((S)-1-(4,5-dihydrooxazol-2-yl)-4-(7-(8-methylnaphthalen-1-yl)-2-(((S)-1-methylpyrrolidin-2-yl)methoxy)-5,6,7,8-tetrahydropyrido[3,4-d]pyrimidin-4-yl)piperazin-2-yl)acetonitrile]?
**A.** G12S x-linking (%) (K-Ras G12S; [4]): 0; G12D x-linking (%) ([1]; Table 4): 0; WT x-linking (%) ([2]; Table 4): 0

**Q.** What does the source list for `COc1ccc(CN=C=NCCCN(C)c2nc(=O)n(-c3c(C)ccnc3C(C)C)c3nc(-c4ccccc4F)c(F)cc23)cc1` [Example 58]?
**A.** G12S x-linking (%) (K-Ras G12S; [4]): ++ (10 < x ≤ 100); G12D x-linking (%) ([1]; Table 4): + (0 < x ≤ 20); WT x-linking (%) ([2]; Table 4): + (0 < x ≤ 20)

**Q.** Which results are given for `CCCN=C=NCCCN(C)c1nc(=O)n(-c2c(C)ccnc2C(C)C)c2nc(-c3ccccc3F)c(F)cc12` [Example 55, 6-fluoro-7-(2-fluorophenyl)-1-(2-isopropyl-4-methylpyridin-3-yl)-4-(methyl(3-(((propylimino)methylene)amino)propyl)amino)pyrido[2,3-d]pyrimidin-2(1H)-one]?
**A.** G12S x-linking (%) (K-Ras G12S; [4]): ++ (10 < x ≤ 100); G12D x-linking (%) ([1]; Table 4): ++ (20 < x ≤ 40); WT x-linking (%) ([2]; Table 4): ++ (20 < x ≤ 100)

**Q.** For `Cc1ccnc(C(C)C)c1-n1c(=O)nc(N2CCN(C(=O)[C@H]3CN3)C[C@@H]2C)c2cc(F)c(-c3c(O)cccc3F)nc21` [Example 65, 4-((S)-4-((R)-aziridine-2-carbonyl)-2-methylpiperazin-1-yl)-6-fluoro-7-(2-fluoro-6-hydroxyphenyl)-1-(2-isopropyl-4-methylpyridin-3-yl)pyrido[2,3-d]pyrimidin-2(1H)-one], which “G12S x-linking (%)” value (K-Ras G12S; [3]) is on record?
**A.** + (0 < x ≤ 10)

**Q.** And the “G12D x-linking (%)” value ([1]; Table 5)?
**A.** + (0 < x ≤ 20)

**Q.** What about the “WT x-linking (%)” value ([2]; Table 5) of the same molecule?
**A.** + (0 < x ≤ 20)

**Q.** Which “G12S x-linking (%)” value (K-Ras G12S; [4]) does the source give for `Cc1cccc2cccc(N3CCc4c(nc(OC[C@@H]5CCCN5C)nc4N4CCC(N=C=NCc5ccc(Cl)cc5)CC4)C3)c12` [Example 49, N-(4-chlorobenzyl)-N-(1-(7-(8-methylnaphthalen-1-yl)-2-(((S)-1-methylpyrrolidin-2-yl)methoxy)-5,6,7,8-tetrahydropyrido[3,4-d]pyrimidin-4-yl)piperidin-4-yl)methanediimine] here?
**A.** + (0 < x ≤ 10)

**Q.** And the “G12D x-linking (%)” value ([1]; Table 4)?
**A.** + (0 < x ≤ 20)

**Q.** And the “WT x-linking (%)” value ([2]; Table 4)?
**A.** + (0 < x ≤ 20)

**Q.** How did the “G12S x-linking (%)” value (K-Ras G12S; [3]) turn out when `Cc1cccc2cccc(N3CCc4c(nc(OC[C@@H]5CCCN5C)nc4N4CCC(N=C=NCCCN5CCOCC5)CC4)C3)c12` [Example 85, N-(1-(7-(8-methylnaphthalen-1-yl)-2-(((S)-1-methylpyrrolidin-2-yl)methoxy)-5,6,7,8-tetrahydropyrido[3,4-d]pyrimidin-4-yl)piperidin-4-yl)-N-(3-morpholinopropyl)methanediimine] was run?
**A.** ++ (10 < x ≤ 100)

**Q.** What about the “G12D x-linking (%)” value ([1]; Table 5) of the same molecule?
**A.** +++ (40 < x ≤ 100)

**Q.** And the “WT x-linking (%)” value ([2]; Table 5)?
**A.** ++ (20 < x ≤ 100)

**Q.** For `CC(C)N=C=NC1CCN(c2ncnc3c(F)c(-c4ccccc4F)c(Cl)cc23)CC1` [Example 3], which “G12S x-linking (%)” value (K-Ras G12S; [4]) is on record?
**A.** + (0 < x ≤ 10)

**Q.** What about the “G12D x-linking (%)” value ([1]; Table 4) of the same molecule?
**A.** + (0 < x ≤ 20)

**Q.** And the “WT x-linking (%)” value ([2]; Table 4)?
**A.** + (0 < x ≤ 20)

**Q.** What does the source list for `Cc1cccc2cccc(N3CCc4c(nc(OC[C@@H]5CCCN5C)nc4N4CCN(C(=O)[C@H]5CN5)[C@@H](CC#N)C4)C3)c12` [Example 63, 2-((S)-1-((R)-aziridine-2-carbonyl)-4-(7-(8-methylnaphthalen-1-yl)-2-(((S)-1-methylpyrrolidin-2-yl)methoxy)-5,6,7,8-tetrahydropyrido[3,4-d]pyrimidin-4-yl)piperazin-2-yl)acetonitrile]?
**A.** G12S x-linking (%) (K-Ras G12S; [3]): + (0 < x ≤ 10); G12D x-linking (%) ([1]; Table 5): ++ (20 < x ≤ 40); WT x-linking (%) ([2]; Table 5): + (0 < x ≤ 20)

**Q.** For `Cc1cccc2cccc(N3CCc4c(nc(OC[C@@H]5CCCN5C)nc4N4CCC(N=C=NCCCN(C)c5ccccn5)CC4)C3)c12` [Example 91, N-methyl-N-(3-((((1-(7-(8-methylnaphthalen-1-yl)-2-(((S)-1-methylpyrrolidin-2-yl)methoxy)-5,6,7,8-tetrahydropyrido[3,4-d]pyrimidin-4-yl)piperidin-4-yl)imino)methylene)amino)propyl)pyridin-2-amine], which “G12S x-linking (%)” value (K-Ras G12S; [3]) is on record?
**A.** + (0 < x ≤ 10)

**Q.** What about the “G12D x-linking (%)” value ([1]; Table 5) of the same molecule?
**A.** ++ (20 < x ≤ 40)

**Q.** And the “WT x-linking (%)” value ([2]; Table 5)?
**A.** + (0 < x ≤ 20)

**Q.** What does the source list for `COCCN=C=NCCCN(C)c1nc(=O)n(-c2c(C)ccnc2C(C)C)c2nc(-c3ccccc3F)c(F)cc12` [Example 56]?
**A.** G12S x-linking (%) (K-Ras G12S; [4]): ++ (10 < x ≤ 100); G12D x-linking (%) ([1]; Table 4): ++ (20 < x ≤ 40); WT x-linking (%) ([2]; Table 4): ++ (20 < x ≤ 100)

**Q.** `Cc1ccnc(C(C)C)c1-n1c(=O)nc(N(C)CCCN=C=NCc2ccccc2)c2cc(F)c(-c3ccccc3F)nc21` [Example 57] was tested. Which “G12S x-linking (%)” value (K-Ras G12S; [4]) did it give?
**A.** ++ (10 < x ≤ 100)

**Q.** What about the “G12D x-linking (%)” value ([1]; Table 4) of the same molecule?
**A.** ++ (20 < x ≤ 40)

**Q.** And the “WT x-linking (%)” value ([2]; Table 4)?
**A.** + (0 < x ≤ 20)

**Q.** With `Cc1cccc2cccc(N3CCc4c(nc(OC[C@@H]5CCCN5C)nc4NCCN(C)C(=O)NCCCl)C3)c12` [Example 37, (S)-3-(2-chloroethyl)-1-methyl-1-(2-((7-(8-methylnaphthalen-1-yl)-2-((1-methylpyrrolidin-2-yl)methoxy)-5,6,7,8-tetrahydropyrido[3,4-d]pyrimidin-4-yl)amino)ethyl)urea] as the molecule, how does the “G12S x-linking (%)” value (K-Ras G12S; [4]) read?
**A.** 0

**Q.** And the “G12D x-linking (%)” value ([1]; Table 4)?
**A.** 0

**Q.** And the “WT x-linking (%)” value ([2]; Table 4)?
**A.** 0

**Q.** Which results are given for `Cc1cccc2cccc(N3CCc4c(nc(OC[C@@H]5CCCN5C)nc4N4CCC(N=C=NCc5ccccc5)CC4)C3)c12` [Example 24, N-benzyl-N-(1-(7-(8-methylnaphthalen-1-yl)-2-(((S)-1-methylpyrrolidin-2-yl)methoxy)-5,6,7,8-tetrahydropyrido[3,4-d]pyrimidin-4-yl)piperidin-4-yl)methanediimine]?
**A.** G12S x-linking (%) (K-Ras G12S; [4]): + (0 < x ≤ 10); G12D x-linking (%) ([1]; Table 4): + (0 < x ≤ 20); WT x-linking (%) ([2]; Table 4): + (0 < x ≤ 20)

**Q.** Which “G12S x-linking (%)” value (K-Ras G12S; [4]) does the source give for `CCCN=C=NCCN(C)c1nc(OC[C@@H]2CCCN2C)nc2c1CCN(c1cccc3cccc(C)c13)C2` [Example 26, N-methyl-7-(8-methylnaphthalen-1-yl)-2-(((S)-1-methylpyrrolidin-2-yl)methoxy)-N-(2-(((propylimino)methylene)amino)ethyl)-5,6,7,8-tetrahydropyrido[3,4-d]pyrimidin-4-amine] here?
**A.** ++ (10 < x ≤ 100)

**Q.** What about the “G12D x-linking (%)” value ([1]; Table 4) of the same molecule?
**A.** +++ (40 < x ≤ 100)

**Q.** And the “WT x-linking (%)” value ([2]; Table 4)?
**A.** ++ (20 < x ≤ 100)
